Experimental data as given in PubChem BioAssay (NCI).
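Protocol summary: plate cells (96-well), add compound at 5 concentrations, incubate 48 h, interpolate endpoints linearly. TGI denotes the concentration required for complete inhibition of growth.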

Legend:
Test in all cases: NCI-60 cell line screen, 48 h
RPMI-8226 leukemia = tested on: RPMI-8226 leukemia
CCRF-CEM leukemia = tested on: CCRF-CEM leukemia
HOP-92 NSCLC = tested on: HOP-92 NSCLC
K-562 leukemia = tested on: K-562 leukemia
OVCAR-8 ovarian = tested on: OVCAR-8 ovarian
SNB-78 CNS = tested on: SNB-78 CNS
DLD-1 colon = tested on: DLD-1 colon
HT29 colon = tested on: HT29 colon
A498 renal = tested on: A498 renal
XF 498 CNS = tested on: XF 498 CNS
786-0 renal = tested on: 786-0 renal
DMS 273 small cell lung = tested on: DMS 273 small cell lung
SK-OV-3 ovarian = tested on: SK-OV-3 ovarian
RXF 393 renal = tested on: RXF 393 renal
DMS 114 small cell lung = tested on: DMS 114 small cell lung
SK-MEL-28 melanoma = tested on: SK-MEL-28 melanoma
SN12C renal = tested on: SN12C renal
M19-MEL melanoma = tested on: M19-MEL melanoma
SNB-75 CNS = tested on: SNB-75 CNS
UACC-257 melanoma = tested on: UACC-257 melanoma
UACC-62 melanoma = tested on: UACC-62 melanoma
NCI-H23 lung = tested on: NCI-H23 lung
HOP-18 NSCLC = tested on: HOP-18 NSCLC
SR leukemia = tested on: SR leukemia
HCC-2998 colon = tested on: HCC-2998 colon
MOLT-4 leukemia = tested on: MOLT-4 leukemia
SF-295 CNS = tested on: SF-295 CNS
COLO 205 colon = tested on: COLO 205 colon
NCI-H460 lung = tested on: NCI-H460 lung
EKVX NSCLC = tested on: EKVX NSCLC
KM20L2 colon = tested on: KM20L2 colon
OVCAR-4 ovarian = tested on: OVCAR-4 ovarian
A549 NSCLC = tested on: A549 NSCLC
SNB-19 CNS = tested on: SNB-19 CNS
HCT-116 colon = tested on: HCT-116 colon
HCT-15 colon = tested on: HCT-15 colon
M14 melanoma = tested on: M14 melanoma
SF-539 CNS = tested on: SF-539 CNS
OVCAR-3 ovarian = tested on: OVCAR-3 ovarian
SW-620 colon = tested on: SW-620 colon
SK-MEL-2 melanoma = tested on: SK-MEL-2 melanoma
U251 CNS = tested on: U251 CNS
HL-60(TB) leukemia = tested on: HL-60(TB) leukemia
KM12 colon = tested on: KM12 colon
IGROV1 ovarian = tested on: IGROV1 ovarian
HOP-62 NSCLC = tested on: HOP-62 NSCLC
LXFL 529 NSCLC = tested on: LXFL 529 NSCLC
UO-31 renal = tested on: UO-31 renal
ACHN renal = tested on: ACHN renal
CAKI-1 renal = tested on: CAKI-1 renal
SK-MEL-5 melanoma = tested on: SK-MEL-5 melanoma
NCI-H226 lung = tested on: NCI-H226 lung
SF-268 CNS = tested on: SF-268 CNS
MALME-3M melanoma = tested on: MALME-3M melanoma
LOX IMVI melanoma = tested on: LOX IMVI melanoma
TK-10 renal = tested on: TK-10 renal
NCI-H522 lung = tested on: NCI-H522 lung
OVCAR-5 ovarian = tested on: OVCAR-5 ovarian
RXF-631 renal = tested on: RXF-631 renal

## COc1cc(OC)c([C@@H]2OC(=O)C3C2C(=O)O[C@H]3c2cc(OC)c(OC)cc2OC)cc1OC (some centres not stated)
RPMI-8226 leukemia
  TGI: > 100 µM
CCRF-CEM leukemia
  TGI: > 100 µM
HOP-92 NSCLC
  TGI: > 10 µM
K-562 leukemia
  TGI: > 100 µM
OVCAR-8 ovarian
  TGI: > 100 µM
SNB-78 CNS
  TGI: > 100 µM
DLD-1 colon
  TGI: > 100 µM
HT29 colon
  TGI: > 100 µM
A498 renal
  TGI: > 100 µM
XF 498 CNS
  TGI: > 100 µM
786-0 renal
  TGI: > 100 µM
DMS 273 small cell lung
  TGI: > 100 µM
SK-OV-3 ovarian
  TGI: > 100 µM
RXF 393 renal
  TGI: > 100 µM
DMS 114 small cell lung
  TGI: > 100 µM
SK-MEL-28 melanoma
  TGI: > 100 µM
SN12C renal
  TGI: > 100 µM
M19-MEL melanoma
  TGI: > 100 µM
SNB-75 CNS
  TGI: > 100 µM
UACC-257 melanoma
  TGI: > 100 µM
UACC-62 melanoma
  TGI: > 100 µM
NCI-H23 lung
  TGI: > 100 µM
HOP-18 NSCLC
  TGI: > 100 µM
SR leukemia
  TGI: > 100 µM
HCC-2998 colon
  TGI: > 100 µM
MOLT-4 leukemia
  TGI: > 100 µM
SF-295 CNS
  TGI: > 100 µM
COLO 205 colon
  TGI: > 100 µM
NCI-H460 lung
  TGI: > 100 µM
EKVX NSCLC
  TGI: > 100 µM
KM20L2 colon
  TGI: > 100 µM
OVCAR-4 ovarian
  TGI: > 100 µM
A549 NSCLC
  TGI: > 100 µM
SNB-19 CNS
  TGI: > 100 µM
HCT-116 colon
  TGI: > 100 µM
HCT-15 colon
  TGI: > 100 µM
M14 melanoma
  TGI: > 100 µM
SF-539 CNS
  TGI: > 100 µM
OVCAR-3 ovarian
  TGI: > 100 µM
SW-620 colon
  TGI: > 10 µM
SK-MEL-2 melanoma
  TGI: > 100 µM
U251 CNS
  TGI: > 100 µM
HL-60(TB) leukemia
  TGI: > 100 µM
KM12 colon
  TGI: > 100 µM
IGROV1 ovarian
  TGI: > 10 µM
HOP-62 NSCLC
  TGI: > 100 µM
LXFL 529 NSCLC
  TGI: > 100 µM
UO-31 renal
  TGI: > 100 µM
ACHN renal
  TGI: > 100 µM
CAKI-1 renal
  TGI: > 100 µM

## CC1OC(OCC2OC(Oc3c(-c4ccc(O)cc4)oc4cc(O)cc(O)c4c3=O)C(OC3OCC(O)(CO)C3O)C(O)C2O)C(O)C(O)C1O (configuration not stated)
RPMI-8226 leukemia
  TGI: > 100 µM
CCRF-CEM leukemia
  TGI: > 100 µM
SK-MEL-5 melanoma
  TGI: > 100 µM
HOP-92 NSCLC
  TGI: > 100 µM
K-562 leukemia
  TGI: 74.9 µM
NCI-H226 lung
  TGI: > 100 µM
OVCAR-8 ovarian
  TGI: > 100 µM
SNB-78 CNS
  TGI: > 100 µM
DLD-1 colon
  TGI: > 100 µM
HT29 colon
  TGI: > 100 µM
A498 renal
  TGI: > 100 µM
786-0 renal
  TGI: > 100 µM
DMS 273 small cell lung
  TGI: > 100 µM
SK-OV-3 ovarian
  TGI: > 100 µM
DMS 114 small cell lung
  TGI: > 100 µM
SK-MEL-28 melanoma
  TGI: > 100 µM
SF-268 CNS
  TGI: > 100 µM
SN12C renal
  TGI: > 100 µM
M19-MEL melanoma
  TGI: 61.6 µM
SNB-75 CNS
  TGI: > 100 µM
UACC-257 melanoma
  TGI: > 100 µM
UACC-62 melanoma
  TGI: > 100 µM
NCI-H23 lung
  TGI: > 100 µM
HOP-18 NSCLC
  TGI: > 100 µM
SR leukemia
  TGI: > 100 µM
HCC-2998 colon
  TGI: > 100 µM
MOLT-4 leukemia
  TGI: > 100 µM
SF-295 CNS
  TGI: > 100 µM
MALME-3M melanoma
  TGI: > 100 µM
LOX IMVI melanoma
  TGI: > 100 µM
COLO 205 colon
  TGI: > 100 µM
TK-10 renal
  TGI: > 100 µM
NCI-H522 lung
  TGI: > 100 µM
NCI-H460 lung
  TGI: > 100 µM
EKVX NSCLC
  TGI: > 100 µM
KM20L2 colon
  TGI: > 100 µM
OVCAR-4 ovarian
  TGI: > 100 µM
OVCAR-5 ovarian
  TGI: > 100 µM
A549 NSCLC
  TGI: > 100 µM
SNB-19 CNS
  TGI: > 100 µM
HCT-116 colon
  TGI: > 100 µM
HCT-15 colon
  TGI: 53.2 µM
M14 melanoma
  TGI: > 100 µM
SF-539 CNS
  TGI: > 100 µM
OVCAR-3 ovarian
  TGI: > 100 µM
SW-620 colon
  TGI: > 100 µM
SK-MEL-2 melanoma
  TGI: > 100 µM
U251 CNS
  TGI: > 100 µM
RXF-631 renal
  TGI: > 100 µM
HL-60(TB) leukemia
  TGI: 38.7 µM
KM12 colon
  TGI: > 100 µM
IGROV1 ovarian
  TGI: > 100 µM
HOP-62 NSCLC
  TGI: > 100 µM
LXFL 529 NSCLC
  TGI: > 100 µM
UO-31 renal
  TGI: > 100 µM
ACHN renal
  TGI: > 100 µM
CAKI-1 renal
  TGI: > 100 µM
